Patent US20240374573A1, “IMIDAZOLE CONTAINING COMPOUNDS, DERIVATIVES THEREFORE, AND USES THEREOF” (AglaeaPharma Inc., priority 2023, published 2024)

Experiments:
[1] = molecular target: T1, α2AAR (α2A-adrenergic receptor) (Homo sapiens, UniProt P08913); assay: α2AAR FLIPR assay (agonist activity); assay type: cell-based; conditions: FLIPR, α2AAR cell line hosted in HEK293 cells; read-out: α2A agonist activity (EC50)
T1 construct: expressed in transfected cells; host or cells: HEK293
T1 sequence (P08913 1-465): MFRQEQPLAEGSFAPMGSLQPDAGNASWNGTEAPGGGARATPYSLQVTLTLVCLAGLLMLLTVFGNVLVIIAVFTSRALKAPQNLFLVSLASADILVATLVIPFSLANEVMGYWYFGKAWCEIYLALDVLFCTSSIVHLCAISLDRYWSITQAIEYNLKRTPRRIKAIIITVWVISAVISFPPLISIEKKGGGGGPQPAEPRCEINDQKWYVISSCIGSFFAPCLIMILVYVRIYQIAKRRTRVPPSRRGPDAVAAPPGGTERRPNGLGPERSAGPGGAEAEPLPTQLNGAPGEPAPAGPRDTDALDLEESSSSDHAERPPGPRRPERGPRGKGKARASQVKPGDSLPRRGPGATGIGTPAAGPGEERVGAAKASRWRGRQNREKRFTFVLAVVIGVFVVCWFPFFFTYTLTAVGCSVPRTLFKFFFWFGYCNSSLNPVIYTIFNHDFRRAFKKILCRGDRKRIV
Procedure: This experimental protocol involved cell seeding and a FLIPR assay using the α2AAR (α2A-adrenergic receptor) cell line hosted in HEK293 cells. […] On Day 1, the cell seeding process started with the removal of the culture medium, followed by rinsing the cells with DPBS (21-031-CVC, Corning). […] The cells were detached, resuspended in growth media, and centrifuged at room temperature at 1000 rpm for 5 minutes. After discarding the supernatant, the cell pellet was resuspended in growth media to a concentration of 10× 10^5 cells per mL. This suspension was added to 384-well plates (19-Jul-38, Greiner) at 20 μL per well and incubated overnight at 37° C. in 5% CO2.
A 250 mM Probenecid solution was prepared in this buffer. The Fluo-4 Direct™ Loading Buffer was made by dissolving Fluo-4 Direct™ crystals (F10471, Invitrogen) in the FLIPR Assay Buffer and adding Probenecid. The buffer was then vortexed and allowed to stand for over 5 minutes, shielded from light. For the FLIPR procedure, testing compounds for agonist activite were serially diluted and transferred to a 384-well compound plate (25-Jan-39, Greiner). The cell plate was then treated with 2× Fluo-4 Direct™ loading buffer and incubated for 50 minutes at 37° C. in a 5% CO2 atmosphere, followed by 10 minutes at room temperature. Subsequently, the FLIPR assay buffer was added to the compound plate, which is then centrifuged.
The cell plate was analyzed in the FLIPR Tetra+ System for fluorescence signals. For the agonist test, reference compounds were added to the cell plates, and fluorescence was measured. The “Max-Min” calculation began from Read 1 to the maximum allowed. The data were analyzed using Prism software to calculate activation percentage for agonists and inhibition percentage for antagonists. The results were then fitted using specific models to determine EC50 for agonists.
The experimental protocol utilized various reagents and apparatus, including Penicillin/Streptomycin (100×) (SV30010, Hyclone), Poly-L-lysine hydrobromide (P1399, Sigma), and different types of 384-well plates such as the 384-Well PP 2.0 Microplate (PP-0200, LABCYTE) and 384 well Low Dead Volume Microplate (LP-0200, LABCYTE). The use of specific reference compounds like UK14304 was also integral to the assay.

α2AAR = molecular target: T2, α2AAR (Homo sapiens, UniProt P08913); assay: α2AAR binding assay ([3H]-RX 821002 radioligand); conditions: [3H]-RX 821002 0.5 nM, HEK293 membranes; read-out: α2A affinity (Ki)
T2 construct: host or cells: HEK293 (membranes)
T2 sequence (P08913 1-465): T1 sequence (P08913 1-465)

SMILES	EC50 [1] [nM]	Ki (α2AAR) [nM]
Cc1cccc(C(Cc2ccc3c(c2)CCC(=O)N3)c2c[nH]cn2)c1C (centres unmarked) [compound 230]	10 to 50	< 10
COCC(=O)Nc1ccc(CC(c2c[nH]cn2)c2cccc(C)c2C)cc1 (centres unmarked) [compound 195]	10 to 50	< 10
Cc1cccc(C(c2cccc(S(N)(=O)=O)c2)c2c[nH]cn2)c1C (centres unmarked) [compound 133]	10 to 50	10 to 50
CCOP(=O)(OCC)c1cccc(C(c2c[nH]cn2)c2cccc(C)c2C)c1 (centres unmarked) [compound 126]	10 to 50	< 10
COCCCC(=O)Nc1cccc(C(c2c[nH]cn2)c2cccc(C)c2C)c1 (centres unmarked) [compound 148]	10 to 50	10 to 50
COC(=O)Nc1ccc(CC(c2c[nH]cn2)c2cccc(C)c2C)cc1 (centres unmarked) [compound 194]	10 to 50	< 10
Cc1cccc(C(Cc2ccc(N(C)C(=O)N(C)C)cc2)c2c[nH]cn2)c1C (centres unmarked) [compound 228]	< 10	< 10
Cc1cccc(C(c2cccc(NC(=O)CCCN3CCOCC3)c2)c2c[nH]cn2)c1C (centres unmarked) [compound 88]	50 to 250	10 to 50
Cc1cccc(C(c2cccc(NS(=O)(=O)CC3CCOC3)c2)c2c[nH]cn2)c1C (centres unmarked) [compound 86]	10 to 50	< 10
Cc1cccc(C(Cc2ccc(NC(=O)C3CCO3)cc2)c2c[nH]cn2)c1C (centres unmarked) [compound 234]	10 to 50	< 10
Cc1cccc(C(c2cccc(NC(=O)CC#N)c2)c2c[nH]cn2)c1C (single isomer, unassigned) [10-B]	10 to 50	10 to 50
Cc1cccc(C(c2c[nH]cn2)c2cccc(C(=O)NCC3CCOCC3)c2F)c1C (centres unmarked) [compound 124]	10 to 50	< 10
Cc1cccc(C(c2cccc(NC(=O)CC3CCCO3)c2)c2c[nH]cn2)c1C (centres unmarked) [compound 153]	10 to 50	10 to 50
Cc1cccc(C(Cc2ccc(C(C)C(=O)O)cc2)c2c[nH]cn2)c1C (single isomer, unassigned) [174-D]	10 to 50	10 to 50
Cc1cccc(C(c2cccc(NC(=O)CC3CCCOC3)c2)c2c[nH]cn2)c1C (centres unmarked) [compound 104]	10 to 50	< 10
Cc1cccc(C(Cc2ccc(NC(=O)CC3CCCO3)cc2)c2c[nH]cn2)c1C (centres unmarked) [compound 176]	< 10	< 10
Cc1cccc(C(c2cccc(NC(=O)CC3=CCOCC3)c2)c2c[nH]cn2)c1C (centres unmarked) [compound 120]	< 10	< 10
Cc1cccc(C(COCCOCCOCCNS(C)(=O)=O)c2c[nH]cn2)c1C (centres unmarked) [compound 26]	10 to 50	50 to 250
Cc1cccc(C(Cc2ccc(N3CCN(C)C3=O)cc2)c2c[nH]cn2)c1C (centres unmarked) [compound 243]	< 10	< 10
Cc1cccc(C(Cc2ccc(C(=O)NCC(=O)O)cc2)c2c[nH]cn2)c1C (centres unmarked) [compound 229]	10 to 50	50 to 250
Cc1cccc(C(Cc2ccc(-c3nnn[nH]3)cc2)c2c[nH]cn2)c1C (centres unmarked) [compound 210]	50 to 250	10 to 50
Cc1cccc(C(c2cccc(NC(=O)CCN3CCCC3)c2)c2c[nH]cn2)c1C (centres unmarked) [compound 89]	50 to 250	10 to 50
COCCC(=O)Nc1cccc(C(c2c[nH]cn2)c2cccc(C)c2C)c1 (centres unmarked) [compound 147]	10 to 50	10 to 50
CC(=O)Nc1ccc(CC(c2c[nH]cn2)c2cccc(C)c2C)cc1F (centres unmarked) [compound 193]	10 to 50	< 10
Cc1cccc(C(c2cccc(NC(=O)CCN3CCOCC3)c2)c2c[nH]cn2)c1C (centres unmarked) [compound 70]	10 to 50	10 to 50
CONC(=O)c1cccc(C(c2c[nH]cn2)c2cccc(C)c2C)c1F (centres unmarked) [compound 54]	10 to 50	10 to 50

SMILES	EC50 [1] [nM]	Ki (α2AAR) [nM]
Cc1cccc(C(Cc2ccc(C(=O)O)c(F)c2)c2c[nH]cn2)c1C (centres unmarked) [compound 197]	10 to 50	50 to 250
Cc1cccc(C(Cc2ccc(C(=O)NS(=O)(=O)c3ccccc3)cc2)c2c[nH]cn2)c1C (centres unmarked) [compound 204]	50 to 250	50 to 250
CC(=O)Nc1ccc(CC(c2c[nH]cn2)c2cccc(C)c2C)cn1 (centres unmarked) [compound 248]	10 to 50	50 to 250
Cc1cccc(C(Cc2ccc(NS(C)(=O)=O)cc2)c2c[nH]cn2)c1C (racemic) [compound 136]	< 10	< 10
Cc1cccc(C(Cc2ccc(C(=O)NC3CCOCC3)cc2)c2c[nH]cn2)c1C (centres unmarked) [compound 177]	< 10	10 to 50
COc1ccccc1C(Cc1cccc(NS(C)(=O)=O)c1)NC1=NCCO1 (centres unmarked) [compound 509]	50 to 250	< 10
Cc1cccc(C(Cc2ccc(C(C)C(=O)O)cc2)c2c[nH]cn2)c1C (single isomer, unassigned) [174-B]	10 to 50	10 to 50
CONC(=O)c1cccc(CC(NC2=NCCO2)c2ccccc2OC)c1 (centres unmarked) [compound 503, 3-[2-(4,5-dihydro-1,3-oxazol-2-ylamino)-2-(2-methoxyphenyl)ethyl]-N-methoxybenzamide]	50 to 250	< 10
Cc1cccc(C(c2cccc(NS(=O)(=O)CC3CCOCC3)c2)c2c[nH]cn2)c1C (centres unmarked) [compound 119]	10 to 50	< 10
CC(=O)N1CCC(CC(=O)Nc2cccc(C(c3c[nH]cn3)c3cccc(C)c3C)c2)CC1 (centres unmarked) [compound 102]	10 to 50	10 to 50
Cc1cccc(C(c2cccc(C(=O)NOC3CCOCC3)c2)c2c[nH]cn2)c1C (centres unmarked) [compound 145]	10 to 50	< 10
CONC(=O)c1cccc(CC(NC2=NCCS2)c2cccc(Cl)c2)c1 (centres unmarked) [compound 506]	50 to 250	< 10
Cc1cccc(C(c2c[nH]cn2)c2cccc(NS(C)(=O)=O)c2F)c1C (centres unmarked) [compound 51]	50 to 250	10 to 50
CNS(=O)(=O)c1ccc(CC(Oc2c(Cl)cccc2Cl)C2=NCCN2)cc1 (centres unmarked) [compound 519]	50 to 250	10 to 50
Cc1cccc(C(c2cccc(NS(C)(=O)=O)c2)c2c[nH]cn2)c1C (centres unmarked) [compound 29]	10 to 50	< 10
Cc1cccc(C(Cc2cccc(NS(=O)(=O)C3CCOCC3)c2)c2c[nH]cn2)c1C (centres unmarked) [compound 134]	10 to 50	< 10
Cc1cccc(C(Cc2ccc(C(N)=O)c(F)c2)c2c[nH]cn2)c1C (racemic) [compound 156]	< 10	< 10
Cc1cccc(C(Cc2ccc(NC(=S)C3CCOCC3)cc2)c2c[nH]cn2)c1C (centres unmarked) [compound 212]	10 to 50	< 10
Cc1cccc(C(c2cccc(NC(=O)CN3CCC(O)CC3)c2)c2c[nH]cn2)c1C (centres unmarked) [compound 123]	10 to 50	< 10
Cc1cccc(C(Cc2ccc(S(=O)(=O)O)cc2)c2c[nH]cn2)c1C (centres unmarked) [compound 221]	10 to 50	10 to 50
Cc1cccc(C(c2cccc(C(=O)NC3CCOCC3)c2)c2c[nH]cn2)c1C (racemic) [compound 121]	< 10	10 to 50
Cc1cccc(C(Cc2ccc(NC(=O)N(C)C3CCOC3)cc2)c2c[nH]cn2)c1C (centres unmarked) [compound 245]	< 10	< 10
CNC(=O)Nc1ccc(CC(c2c[nH]cn2)c2cccc(C)c2C)cc1 (centres unmarked) [compound 237]	10 to 50	< 10
Cc1cccc(C(c2cccc(S(=O)(=O)NC3CCOCC3)c2)c2c[nH]cn2)c1C (centres unmarked) [compound 162]	10 to 50	< 10
Cc1cccc(C(Cc2ccc(NC3CCOCC3)cc2)c2c[nH]cn2)c1C (centres unmarked) [compound 207]	10 to 50	< 10
CC(=O)Nc1ccc(CC(c2c[nH]cn2)c2cccc(C)c2C)c(F)c1 (centres unmarked) [compound 247]	10 to 50	< 10
